{
  "source": "patent US5037960A",
  "about": "“Inhibitor of protein synthesis, process for its isolation, its use and pharmaceutical compositions in which it is present” (priority 1986, dated 1991)",
  "test_system": "protein synthesis (subcellular fractions of rat liver)",
  "format": "biochemical",
  "settings": "compared with native trichokirin",
  "description": "The in vitro protocol uses appropriately complemented subcellular fractions of rat liver capable of incorporating ^14 C-phenylalanine in the presence of an artificial messenger RNA: polyuridylic acid.\nThe procedure employed for preparing the subcellular fractions and measuring the incorporation of ^14 C-phenylalanine is an adaptation of the method described in BBA 312, 608-615 (1973), using both a microsomal fraction and a cytosol fraction of the rat hepatocytes. The sample containing the trichokirin is introduced in the form of a solution appropriately diluted in a 50 mM tris-HCl buffer, pH 7.6, containing 0.2% of 2-mercaptoethanol and 15 micrograms/ml of bovine serum albumin. The count data are used to calculate, relative to a reference medium without inhibitor, the percentage inhibition of the incorporation of ^14 C-phenylalanine for each reaction medium.\nThe values obtained together make it possible to determine the concentration of trichokirin (or IC50) which inhibits the incorporation of ^14 C-phenylalanine by 50% under the experimental conditions.",
  "data": [
    {"substance": "mercaptosuccinoyl-trichokirin [modified trichokirin]", "values": [
      {"measurement": "effect of the modification on activity", "value": "does not cause a significant loss of activity"}
    ]}
  ]
}
